Assay results as given in patent US6716866B2, “Aryl-benzimidazole compounds having antiinfective activity” (GeneSoft Pharmaceuticals, Inc., priority 2001, dated 2004).

Tests used:
S. aureus ATCC 13709 = assay: NCCLS broth microdilution MIC, S. aureus ATCC 13709; type: cell-based; conditions: organism E = S. aureus ATCC 13709
Procedure: (§1) Compounds according to this invention were screened for their in vitro activities against selected species of bacteria and fungi. The minimal inhibition concentration (MIC) of these compounds was determined using the National Committee for Clinical Laboratory Standards (NCCLS) broth microdilution assay in microtiter plates, as set forth in: (1) the guidelines of the National Committee for Clinical Laboratory Standards (NCCLS) Document M7-A4 (NCCLS, 1997); (2) the guidelines of the National Committee for Clinical Laboratory Standards (NCCLS) Document M11-A4 (NCCLS, 1997); and (3) the guidelines and reference method of the National Committee for Clinical Laboratory Standards (NCCLS) Document M27-T (NCCLS, 1995). For antifungal essays, the method recommended in Murray, PR., 1995 Manual of Clinical Microbiology (ASM Press, Washington, D.C.), was employed.

S. aureus ATCC 27660 = assay: MIC against drug-resistant bacteria, S. aureus ATCC 27660; type: cell-based; conditions: organism B = S. aureus ATCC 27660, methycillin resistant strain (MRSA)
Procedure: as §1
(§2) Further, compounds (I) are effective against drug-resistant bacteria, as evidenced by the data in Table 2 below:
(§3) ATCC 27660 and ATCC 33591 are methycillin resistant strains of S. aureus (MRSA's). ATCC 51559 is a vancomycin resistant strain of E. faecium (VRE). ATCC 12228 is a methycillin resistant strain of S. epidermis (MRSE). ATCC 51422 is a penicillin resistant strain of S. pneumoniae.

S. pneumoniae ATCC 49619 = assay: NCCLS broth microdilution MIC, S. pneumoniae ATCC 49619; type: cell-based; conditions: organism F = S. pneumoniae ATCC 49619
Procedure: as §1

E. faecium ATCC 51559 = assay: MIC against drug-resistant bacteria, E. faecium ATCC 51559; type: cell-based; conditions: organism A = E. faecium ATCC 51559, vancomycin resistant strain (VRE)
Procedure: as §1, §2, §3

E. faecalis ATCC 29212 = assay: NCCLS broth microdilution MIC, E. faecalis ATCC 29212; type: cell-based; conditions: organism D = E. faecalis ATCC 29212
Procedure: as §1

B. cereus ATCC 11778 = assay: NCCLS broth microdilution MIC, B. cereus ATCC 11778; type: cell-based; conditions: organism A = B. cereus ATCC 11778
Procedure: as §1

C. albicans ATCC 38247 = assay: NCCLS broth microdilution MIC (antifungal), C. albicans ATCC 38247; type: cell-based; conditions: organism B = C. albicans ATCC 38247
Procedure: as §1

S. epidermis ATCC 12228 = assay: MIC against drug-resistant bacteria, S. epidermis ATCC 12228; type: cell-based; conditions: organism D = S. epidermis ATCC 12228, methycillin resistant strain (MRSE)
Procedure: as §1, §2, §3

E. coli ATCC 25922 = assay: NCCLS broth microdilution MIC, E. coli ATCC 25922; type: cell-based; conditions: organism C = E. coli ATCC 25922
Procedure: as §1

S. pneumoniae ATCC 51422 = assay: MIC against drug-resistant bacteria, S. pneumoniae ATCC 51422; type: cell-based; conditions: organism E = S. pneumoniae ATCC 51422, penicillin resistant strain
Procedure: as §1, §2, §3

DNA sequence ACTACT = assay: Quantitative DNase I footprint titration, site ACTACT; type: binding; conditions: DNase I footprinting, pH 7.0, 22° C.
Procedure: (§4) A number of compounds according to this invention were screened for their ability to bind to three DNA sites, using DNase I footprinting.
(§5) The target sites and their complements are identified in bold underline.
(§6) The resulting duplexes were ligated to the large pUC19 XbaI/Pstl restriction fragment. […] (Sambrook et al., ibid.)
(§7) The polyamides were allowed to equilbrate at 22° C. for 16 h.

DNA sequence AATACT = assay: Quantitative DNase I footprint titration, site AATACT; type: binding; conditions: DNase I footprinting, pH 7.0, 22° C.
Procedure: as §4, §5, §6, §7

DNA sequence ATTACT = assay: Quantitative DNase I footprint titration, site ATTACT; type: binding; conditions: DNase I footprinting, pH 7.0, 22° C.
Procedure: as §4, §5, §6, §7

DNA sequence AGTACT = assay: Quantitative DNase I footprint titration, site AGTACT; type: binding; conditions: DNase I footprinting, pH 7.0, 22° C.
Procedure: as §4, §5, §6, §7

DNA sequence ACTAGT = assay: Quantitative DNase I footprint titration, site ACTAGT; type: binding; conditions: DNase I footprinting, pH 7.0, 22° C.
Procedure: as §4, §5, §6, §7

S. aureus ATCC 29213 = assay: NCCLS broth microdilution MIC, S. aureus ATCC 29213; type: cell-based; conditions: organism G = S. aureus ATCC 29213
Procedure: as §1

S. aureus ATCC 33591 = assay: MIC against drug-resistant bacteria, S. aureus ATCC 33591; type: cell-based; conditions: organism C = S. aureus ATCC 33591, methycillin resistant strain (MRSA)
Procedure: as §1, §2, §3

SMILES | Minimum Inhibitoty Concentration (MIC) (S. aureus ATCC 27660) | Minimum Inhibitory Concentration (MIC) (S. pneumoniae ATCC 49619) | Minimum Inhibitoty Concentration (MIC) (E. faecium ATCC 51559) | Minimum Inhibitory Concentration (MIC) (E. faecalis ATCC 29212) | Minimum Inhibitory Concentration (MIC) (B. cereus ATCC 11778) | Minimum Inhibitory Concentration (MIC) (C. albicans ATCC 38247) | Minimum Inhibitoty Concentration (MIC) (S. epidermis ATCC 12228) | Minimum Inhibitory Concentration (MIC) (E. coli ATCC 25922) | Minimum Inhibitoty Concentration (MIC) (S. pneumoniae ATCC 51422) | Minimum Inhibitoty Concentration (MIC) (S. aureus ATCC 33591) | also measured
Cn1cc(NC(=O)c2sccc2Cl)cc1C(=O)Nc1cc(-c2nc3ccc(C(=O)NCCN4CCOCC4)cc3[nH]2)n(C)c1 [Compound I-3] | +++ (MIC ≦4) | +++ (MIC ≦4) | +++ (MIC ≦4) | +++ (MIC ≦4) | +++ (MIC ≦4) | >32 µg/mL | +++ (MIC ≦4) | +++ (MIC ≦4) | +++ (MIC ≦4) |  | Minimum Inhibitory Concentration (MIC) (S. aureus ATCC 13709): +++ (MIC ≦4)
Cn1cc(NC(=O)c2ccc3nc(-c4sccc4Cl)[nH]c3c2)cc1-c1nc2ccc(C(=O)NCCN3CCOCC3)cc2[nH]1 [Compound I-1] | +++ (MIC ≦4) | +++ (MIC ≦4) |  | +++ (MIC ≦4) | +++ (MIC ≦4) | >32 µg/mL |  | >32 µg/mL |  |  | Minimum Inhibitory Concentration (MIC) (S. aureus ATCC 13709): +++ (MIC ≦4)
CN(C)CCCNC(=O)CCNC(=O)c1cc(NC(=O)c2cc(NC(=O)c3cc(NC(=O)c4nc(NC(=O)CCCNC(=O)c5cc(NC(=O)c6cc(NC(=O)c7cc(NC(=O)c8nccn8C)cn7C)cn6C)cn5C)cn4C)cn3C)cn2C)cn1C [Compound A, reference compound] |  |  |  |  |  |  |  |  |  |  | Association Constant, Ka (DNA sequence ACTACT): 5e+08 M⁻¹; Association Constant, Ka (DNA sequence AATACT): 500000 M⁻¹; Association Constant, Ka (DNA sequence ATTACT): 5e+08 M⁻¹; Association Constant, Ka (DNA sequence AGTACT): 3e+09 M⁻¹; Association Constant, Ka (DNA sequence ACTAGT): <1e+08 M⁻¹
Cn1cc(NC(=O)c2cc(NC(=O)c3ccc4nc(-c5sccc5Cl)[nH]c4c3)cn2C)cc1C(=O)NCCN1CCOCC1 [Compound I-4] |  | +++ (MIC ≦4) |  | >32 µg/mL | >32 µg/mL | >32 µg/mL |  | >32 µg/mL |  |  | Minimum Inhibitory Concentration (MIC) (S. aureus ATCC 29213): + (MIC from 12 to 32, inclusive)
CN(C)CCCNC(=O)CCNC(=O)c1cc(NC(=O)c2cc(NC(=O)c3cc(NC(=O)c4nc(NC(=O)CCCNC(=O)c5cc(NC(=O)c6cc(NC(=O)c7ccc8nc(-c9nsc(Cl)c9Cl)[nH]c8c7)cn6C)cn5C)cn4C)cn3C)cn2C)cn1C [Compound I-9] |  |  |  |  |  |  |  |  |  |  | Association Constant, Ka (DNA sequence ACTACT): 5e+09 M⁻¹; Association Constant, Ka (DNA sequence AATACT): 1e+09 M⁻¹; Association Constant, Ka (DNA sequence ATTACT): 5e+09 M⁻¹; Association Constant, Ka (DNA sequence AGTACT): 1e+11 M⁻¹; Association Constant, Ka (DNA sequence ACTAGT): <1e+08 M⁻¹
Cn1cc(NC(=O)c2cc(NC(=O)c3ccc4nc(-c5sc6ccccc6c5Cl)[nH]c4c3)cn2C)cc1C(=O)NCCN1CCOCC1 [Compound I-5] |  | >32 µg/mL |  | >32 µg/mL | >32 µg/mL | >32 µg/mL |  | >32 µg/mL |  |  | Minimum Inhibitory Concentration (MIC) (S. aureus ATCC 29213): >32 µg/mL
CN(C)CCCNC(=O)CCNC(=O)c1cc(NC(=O)c2cc(NC(=O)c3cc(NC(=O)c4nc(NC(=O)CCCNC(=O)c5cc(NC(=O)c6cc(NC(=O)c7cc(NC(=O)c8nsc(NCCCN(C)C)c8Cl)cn7C)cn6C)cn5C)cn4C)cn3C)cn2C)cn1C [B, reference compound] |  |  |  |  |  |  |  |  |  |  | Association Constant, Ka (DNA sequence ACTACT): 7e+09 M⁻¹; Association Constant, Ka (DNA sequence AATACT): 7e+09 M⁻¹; Association Constant, Ka (DNA sequence ATTACT): 7e+09 M⁻¹; Association Constant, Ka (DNA sequence AGTACT): 1e+11 M⁻¹; Association Constant, Ka (DNA sequence ACTAGT): <1e+08 M⁻¹
CN(C)CCCNC(=O)CCNC(=O)c1cc(NC(=O)c2cc(NC(=O)CCNC(=O)c3cc(NC(=O)c4ccc5nc(-c6cc(Br)c(Br)s6)[nH]c5c4)cn3C)cn2C)cn1C [Compound I-6] |  | >32 µg/mL |  | >32 µg/mL | >32 µg/mL | >32 µg/mL |  | >32 µg/mL |  |  | Minimum Inhibitory Concentration (MIC) (S. aureus ATCC 29213): >32 µg/mL
Cn1cc(NC(=O)c2ccc3nc(-c4cc(NC(=O)c5ccc(F)cc5F)cn4C)[nH]c3c2)cc1C(=O)NCCN1CCOCC1 [Compound I-39] | +++ (MIC ≦4) |  | +++ (MIC ≦4) |  |  |  | +++ (MIC ≦4) |  | +++ (MIC ≦4) | +++ (MIC ≦4) | 
C[C@@H]1CN(CCNC(=O)c2ccc3nc(-c4cc(NC(=O)c5cc(NC(=O)c6cc7ccccc7cn6)cn5C)cn4C)[nH]c3c2)C[C@H](C)O1 [Compound I-29] | +++ (MIC ≦4) |  | +++ (MIC ≦4) |  |  |  | +++ (MIC ≦4) |  | +++ (MIC ≦4) | +++ (MIC ≦4) | 
Cn1cc(NC(=O)c2ccc3nc(-c4cc(NC(=O)c5cc6ccccc6cn5)cn4C)[nH]c3c2)cc1C(=O)NCCN1CCCCC1 [Compound I-22] | +++ (MIC ≦4) |  | +++ (MIC ≦4) |  |  |  | +++ (MIC ≦4) |  | +++ (MIC ≦4) | +++ (MIC ≦4) | 
CN(C)CCCNC(=O)CCNC(=O)c1cc(NC(=O)c2cc(NC(=O)c3cc(NC(=O)c4nc(NC(=O)CCCNC(=O)c5cc(NC(=O)c6cc(NC(=O)c7ccc8nc(-c9nccn9C)[nH]c8c7)cn6C)cn5C)cn4C)cn3C)cn2C)cn1C [Compound I-8] |  |  |  |  |  |  |  |  |  |  | Association Constant, Ka (DNA sequence ACTACT): 5e+09 M⁻¹; Association Constant, Ka (DNA sequence AATACT): 1e+09 M⁻¹; Association Constant, Ka (DNA sequence ATTACT): 5e+09 M⁻¹; Association Constant, Ka (DNA sequence AGTACT): 1e+11 M⁻¹; Association Constant, Ka (DNA sequence ACTAGT): <1e+08 M⁻¹
Cn1cc(NC(=O)c2sccc2Cl)cc1C(=O)Nc1cc(-c2nc3ccc(C(=O)NCCN4CCCCC4)cc3[nH]2)n(C)c1 [Compound I-36] | +++ (MIC ≦4) |  | +++ (MIC ≦4) |  |  |  | +++ (MIC ≦4) |  | +++ (MIC ≦4) | +++ (MIC ≦4) | 
CN(C)CCCNC(=O)c1ccc2nc(-c3cc(NC(=O)c4cc(NC(=O)c5cc6ccccc6cn5)cn4C)cn3C)[nH]c2c1 [Compound I-33] | +++ (MIC ≦4) |  | +++ (MIC ≦4) |  |  |  | +++ (MIC ≦4) |  | +++ (MIC ≦4) | +++ (MIC ≦4) | 
